In the NIST ThermoML archive (doi:10.1016/j.jct.2017.07.019):
± gives the expanded uncertainty stated by the source.

Settings: Liquid, Ebulliometric method (Recirculating still)

Cc1ccc(C)cc1 [1,4-dimethylbenzene]
vapor or sublimation pressure (411.45 K): 101.3 ± 0.7 kPa

OCC(F)(F)C(F)F [2,2,3,3-tetrafluoro-1-propanol]
vapor or sublimation pressure (382.15 K): 101.3 ± 0.6 kPa

ClC(Cl)Cl [trichloromethane]
vapor or sublimation pressure (334.35 K): 101.3 ± 0.7 kPa

O [water]
vapor or sublimation pressure (373.05 K): 101.3 ± 0.6 kPa
